In article PMC8765310, “Metabolism, Excretion, and Mass Balance of [^14C]-Rezafungin in Animals and Humans” (Antimicrobial Agents and Chemotherapy, 2022):
*1 amine or outer side, *2 acyl side, *3 side chain or, on linkers, in order; H or OH if unused. Where a SMILES comes first, the peptide text is derived from it. Bridges are numbered along the chain shown (N, C = ends). [ ]: non-standard residue; d: D form. The star is where a group is joined. Orn(4R-OH,5R-OCH2CH2NMe3+) = C[N+](C)(C)CCO[C@@H](N[*:3])[C@H](O)C[C@H](N[*:1])C(=O)[*:2]; pTerphenylCO(4''-OnC5H11) = CCCCCOc1ccc(-c2ccc(-c3ccc(C(=O)*)cc3)cc2)cc1; hTyr(3S-OH,4S-OH) = N[C@H](C(=O)O)[C@H](O)[C@@H](O)c1ccc(O)cc1; Pro(3S-OH,4S-Me) = C[C@H]1CN[C@H](C(=O)O)[C@H]1O; Hyp = O=C(O)[C@@H]1C[C@@H](O)CN1

How the values were obtained:
[1] = Clinical safety in the human mass balance study; type: in vivo; conditions: single IV 400-mg infusion
Experimental: (i) Study design. This was an open-label, phase I, single-dose mass balance study. The study was conducted at Labcorp (formerly, Covance, Inc.; Madison, WI) in accordance with good clinical practice, including ICH guidelines and applicable regulatory requirements, and in general conformity with the Declaration of Helsinki. No animal work was conducted by Labcorp. All pertinent study documents were reviewed by the Institutional Review Board (IRB) prior to study initiation. Following IRB approval and collection of written informed consent, all the subjects underwent an initial screening assessment within 28 days of the first dose. Safety was assessed by vital signs, physical examinations, AE assessments, laboratory tests (chemistry, hematology, and urinalysis), and a 12-lead electrocardiogram.

[2] = Rat blood and plasma radioactivity pharmacokinetics; type: in vivo, Sprague-Dawley rats; conditions: IV [14C]-rezafungin 15 mg/kg, mean plasma concentrations
Experimental: (§1) (i) Rat study design. The study used 12 male Sprague-Dawley rats, each administered a bolus IV injection into the tail vein over approximately 3–4 min of 15 mg/kg of rezafungin (with a target radioactivity of 200 μCi/kg of [^14C]-rezafungin). Three of the rats were bile duct cannulated. Whole blood/plasma, urine, feces/bile, and cage washings were collected at periodic intervals from noncannulated rats until euthanization at 336 h postdose and from bile duct cannulated rats until euthanization at 120 h postdose as that was the duration that the patency of bile duct cannulae could be maintained. Carcasses were collected at the time of euthanization. All samples were analyzed for drug-derived radioactivity by liquid scintillation counting.
(§2) (iii) Sample analysis. Whole blood and fecal homogenates were combusted prior to analysis by liquid scintillation counting (LSC). Blood, plasma, bile, urine, cage rinse/wash, and fecal homogenate samples were mixed with scintillation fluid and analyzed for radioactivity by LSC. Rat carcasses were dissolved in potassium hydroxide, and the resulting digests were mixed with scintillation fluid and analyzed for radioactivity by LSC.

[3] = Human metabolite profiling (HPLC with radiochemical and HRMS detection); type: in vivo; conditions: 400 mg IV
Experimental: (iv) Metabolite profiling. Plasma samples were pooled across subjects through 672 h postdose to produce inter-subject time point pools. Urine and fecal homogenate samples were pooled by subject across various time points up through 408 and 672 h postdose, respectively. Selected samples of plasma, urine, and feces were profiled for rezafungin and metabolites by HPLC with radiochemical and high-resolution mass spectrometry detection; metabolites were identified by HPLC with known standards and/or by HPLC-MS/MS structure elucidation. Pharmacokinetics were calculated by non-compartmental analysis using Phoenix WinNonlin software (version 6.3/8.1; Pharsight, Mountain View, CA).

[4] = cited from earlier work
Excerpt: All three of the previously approved echinocandins (caspofungin, micafungin, and anidulafungin) are believed to undergo spontaneous chemical (non-enzymatic) degradation to a ring-opened peptide as their primary clearance mechanism ([18]). […] While protein binding is generally considered a factor in evaluation of half-life, rezafungin and the ...

[5] = Rat metabolite profiling (LC-MS with radioactivity detection); type: in vivo, Sprague-Dawley rats; conditions: pooled samples, IV 15 mg/kg
Experimental: as §1
(§3) (iv) Metabolite profiling. The metabolite identification and urine profiling were achieved using pooled samples by equal percent weight of samples (urine, bile, feces) or by equal volume (50 μl) aliquots of each plasma sample across all time points/intervals. The urine, plasma, bile, and fecal samples were analyzed using liquid chromatography tandem mass spectrometry (LC-MS) coupled with a radioactivity flow-through detector for metabolite profiling and identification. Tandem MS experiments were performed, and the structures of the metabolites were proposed based on their MS/MS spectra. The proposed structures were confirmed by comparison of the retention times and product ion spectra with the authentic reference standards when possible.

[6] = Monkey blood and plasma radioactivity pharmacokinetics; type: in vivo, cynomolgus monkeys
Experimental: (§4) (ii) Monkey study design. The study used 3 male cynomolgus monkeys, each administered a single 10 mg/kg IV dose of [^14C]-rezafungin (with a target radioactivity of 100 μCi/kg of [^14C]-rezafungin) by infusion into a saphenous vein over 20 min. Whole blood and plasma samples were collected at each of the following time points: predose, 0.5, 2, 4, 8, 24, 48, 96 120, 144, 168, 240, 480, 720, and 1440 h postdose. Urine, feces, and cage washings were collected at predose (urine/feces only) and daily 24-h collections for 30 days.
as §2

[7] = Monkey excretion/mass balance of [14C]-rezafungin; type: in vivo, cynomolgus monkeys
Experimental: as §4, §2

[8] = Rat excretion/mass balance of [14C]-rezafungin; type: in vivo, Sprague-Dawley rats; conditions: LSC; for Radioactivity recovered in feces: mean
Experimental: as §1, §2

[9] = Monkey metabolite profiling (LC-MS with radioactivity detection); type: in vivo, cynomolgus monkeys; conditions: pooled samples, IV 10 mg/kg
Experimental: as §4, §3

[10] = monkeys, 10 mg/kg IV, through 720 h postdose
[11] = bile duct cannulated rats, IV 15 mg/kg, until 120 h postdose, average
[12] = intact rats, IV 15 mg/kg, through 336 h postdose, average

CCCCCOc1ccc(-c2ccc(-c3ccc(C(=O)N[C@H]4C[C@@H](O)[C@@H](OCC[N+](C)(C)C)NC(=O)[C@@H]5[C@@H](O)[C@@H](C)CN5C(=O)[C@H]([C@@H](C)O)NC(=O)[C@H]([C@H](O)[C@@H](O)c5ccc(O)cc5)NC(=O)[C@@H]5C[C@@H](O)CN5C(=O)[C@H]([C@@H](C)O)NC4=O)cc3)cc2)cc1 [rezafungin] ({pTerphenylCO(4''-OnC5H11)}-[Orn(4R-OH,5R-OCH2CH2NMe3+)]T[Hyp][hTyr(3S-OH,4S-OH)]T[Pro(3S-OH,4S-Me)]; lactam 1-C)
Treatment-emergent adverse events (TEAEs) reported, total number ([1]; 9 healthy male subjects): 13
Deaths, SAEs ([1]; 9 subjects): no deaths or other SAEs
Laboratory assessments, vital signs, ECGs, physical examinations ([1]; 9 subjects): no clinically relevant treatment-related findings
Severe TEAEs ([1]; 9 subjects): no severe TEAEs
Subjects with diarrhea (most common TEAE) ([1]; of 9 subjects): two
t1/2 of plasma total radioactivity [2]: 54 h
Share of total recovered radioactivity in feces ([3]; human feces pooled by subject through 672 h postdose): 90%
Share of total plasma radioactivity exposure ([3]; human plasma pooled across subjects through 672 h postdose, HPLC radio/HRMS): 69%
Share of total recovered radioactivity in urine ([3]; human urine pooled by subject through 408 h postdose): negligible
Protein binding [4]: 97.4%
Radioactive component in feces and bile ([5]; rat feces and bile): predominant radioactive component
Share of total plasma radioactivity exposure ([5]; rat plasma, LC-MS with radio-detection): 56%
t1/2 of plasma total radioactivity ([6]; monkey, IV [14C]-rezafungin 10 mg/kg, mean plasma concentrations): 170 h
Ratio of blood-to-plasma AUC (radioactivity) ([6]; monkeys, 10 mg/kg IV): approximately 1
Time of maximum blood and plasma radioactivity concentrations ([6]; monkeys, single IV 20-min infusion 10 mg/kg, first postdose sample): 0.5 h
Average total recovery of radioactivity ([7]; 3 male monkeys, single 10 mg/kg IV 20-min infusion (100 μCi/kg), at 168 h (1 week) postdose, LSC): 47.02 % of the dose
Radioactivity recovered in feces ([7]; monkeys, 10 mg/kg IV, at 720 h postdose): 60 % of the administered dose
Mean total recovery of radioactivity ([7]; monkeys, 10 mg/kg IV, through 360 h postdose): 65 % of the dose
Radioactivity recovered in cage residue [7, 10]: 4.3 % of the administered dose
Radioactivity recovered in urine [7, 10]: 9.7 % of the administered dose
Radioactivity recovered in feces ([8]; bile duct cannulated rats (n = 3), single IV 15 mg/kg, until 120 h postdose): 35 % of the administered dose
Radioactivity recovered in the carcass ([8]; bile duct cannulated rats, IV 15 mg/kg, euthanized at 120 h postdose, average): 30 % of the administered dose
Average total recovery of radioactivity ([8]; bile duct cannulated rats, IV 15 mg/kg, until 120 h postdose): 98 % of the administered dose
Radioactivity recovered in bile [8, 11]: 17 % of the administered dose
Radioactivity recovered in cage residues [8, 11]: 1.2 % of the administered dose
Radioactivity recovered in feces ([8]; intact (non-bile duct cannulated) male rats, single IV bolus 15 mg/kg (200 μCi/kg), through 336 h postdose): 70 % of the administered dose
Radioactivity recovered in the carcass ([8]; intact rats, IV 15 mg/kg, at 336 h postdose, average): 7.9 % of the administered dose
Radioactivity recovered in cage residues [8, 12]: 2.5 % of the administered dose
Radioactivity recovered in urine [8, 12]: 14 % of the administered dose
Share of total recovered radioactivity in feces ([9]; monkey feces): 35%
Share of total plasma radioactivity exposure ([9]; monkey plasma, LC-MS with radio-detection): 74%
